In patent publication US20080206347A1, “Pharmaceutical Formulations Comprising Active Pharmaceutical Principles Adsorbed on Titanium Dioxide Nanoparticles” (FLAMMA S.P.A., priority 2005, published 2008):
Values joined by “and” are separate entries in the source; they are usually repeats but may differ in a detail not shown here. Equal entries are not always repeated. Where two headings read alike, the source gives them in different places.

Legend:
[1] = Adsorption of drug on TiO2 nanoparticles; type: physicochemical
Procedure: To a stirred solution of Sodium Risedronate (625 mg) in deionized water (100 ml) increasing amounts of nanocrystalline TiO2 were added (ca. 20 nm nanoparticle size). […] This limit probably corresponds to a total surface coverage of the nanoparticles.
190 mg of Sodium Risedronate were adsorbed at 25° C. on 3.00 g of TiO2 nanoparticles having an average diameter of 20-25 nm.
(§1) To an aqueous solution containing 625 mg of Sodium Risedronate in 100 ml of deionized water 3.00 g of TiO2 was added. The suspension was stirred for 72 h at room temperature and then centrifuged at 4000 rpm for 10 min. The solid was suspended twice in a pH 1 HCl solution, stirred for 20 min and centrifuged. The solid was finally dried at 40° C. under vacuum.
(§2) A NMR-based method was developed since alendronate lacks the chromophoric group of risedronate. The NMR experiments were carried out in H2O instead of D2O (or other deuterated solvents) simply using the aqueous solutions obtained after removal of TiO2 by centrifugation without concentration or further treatment. Only a small amount of C6D6 in a sealed capillary tube (reusable) inserted into the NMR tube was required to achieve the field lock. […] To determine the concentration of sodium alendronate in aqueous solutions, a known amount of an internal standard was added before each NMR measurements, namely 1,3,5-triaza-7-phospha-adamantane, a water-soluble phosphine.
TiO2 (25 nm, 1.00 g) was added to a solution of Sodium Alendronate trihydrated (207 mg, 0.64 mmol) in H2O (50 ml) and the resulting suspension (pH 4.5) was vigorously stirred in the dark at 25° C. for 48 h, then centrifuged (4,000 rpm, 5 min). The cloudy supernatant was recovered, treated with solid NaCl (ca. 3 g), kept at room temperature for 2 h, and centrifuged (4,000 rpm, 5 min). To the resulting solution was added 1,3,5-triaza-7-phospha-adamantane and the concentration of residual sodium alendronate was estimated by ^31P-NMR as described above.

[2] = Procedure: as §2
Sodium Alendronate trihydrated was adsorbed on TiO2 as described above. After centrifugation, the recovered solid was dried at 40° C./0.1 mbar for 6 h. A suspension of this solid in 50 ml of aqueous HCl (pH 1.0) or NaOH (pH 9.0) was vigorously stirred at the stated temperature in a nitrogen atmosphere. The pH of the basic solution was constantly monitored and maintained at the initial level by addition of 0.05 M NaOH.

[3] = Desorption of Sodium Risedronate from TiO2 in aqueous solution at different pH; type: physicochemical; conditions: for amount released, % of the initial concentration on TiO2: pH=8, 25° C.
Procedure: Desorption of Sodium Risedronate from TiO2 at 25° C. was studied in aqueous solution at different pH values.
The desorption as function of time of Sodium Risedronate from TiO2 was studied in aqueous solution at pH 9 and at 36° C.
as §1
Nine separate 30 mg portions of TiO2 adsorbed with Sodium Risedronate were suspended in 10 ml of pH 9 NaOH solutions and left stirring for different times in the range 1-120 min. During drug desorption the pH of the suspension was kept at the original value by small addition of NaOH solution. In all cases the concentration of desorbed drug was corrected for volume changes.

[4] = in vivo; cited from earlier work
[5] = 1.00 g TiO2 (25 nm), 24 h stirring, 25° C.
[6] = 250 mg of TiO2 carrying 16 mg of drug

amount adsorbed on TiO2 ([1]; 1.00 g TiO2 (25 nm), 207 mg in 50 ml H2O, 48 h stirring, 25° C.) | amount adsorbed on TiO2 [1, 5] | amount adsorbed, % of the initial amount [1, 5] | amount adsorbed, % of the initial amount ([1]; 1.00 g TiO2 (25 nm), 48 h stirring, 25° C.) | release to the intestine [2, 6] | Desorption ([2]; pH 1.0, 2 h stirring at 25° C.) | Desorption ([2]; pH 9.0, 30 min stirring at 25° C.) | Desorption ([2]; pH 9.0, 2 h stirring at 25° C.) | Desorption ([2]; pH 9.0, 6 h stirring at 37° C.) | Structure (SMILES) | amount of drug which can be adsorbed on the surface of the nanocrystalline substrate ([1]; 625 mg in 100 ml deionized water, increasing amounts of TiO2 ca. 20 nm, limit value) | amount adsorbed on TiO2 ([1]; on 3.00 g of TiO2 nanoparticles (20-25 nm), 25° C./room temperature, from 625 mg) | amount of drug released in the intestine [3, 6] | release in the gastroesophageal region [3, 6] | adsorbed drug desorbed ([3]; pH 9, 36° C., after 1 minute) | amount of drug released ([3]; pH 9, 36° C., in the next 60 min) | amount of drug released ([3]; pH 9, 36° C., longer times (up to 120 min), constant) | amount released, % of the initial concentration on TiO2 ([3]; after 30 min) | amount released, % of the initial concentration on TiO2 ([3]; after 2 hours) | oral bioavailability [4]
71 mg | 66 mg | 32% | 34% and 26-34% | 4 mg | not detected | 8% | 12% | 22% and 16-22% | NCCCC(O)(P(=O)(O)O)P(=O)(O)O [Sodium Alendronate] |  |  |  |  |  |  |  |  |  | 
 |  |  |  |  |  |  |  |  | O=P(O)(O)C(O)(Cc1cccnc1)P(=O)(O)O [Sodium Risedronate] | 31% | 190 mg | 6 to 9 mg | negligible release | 25% | 36% | 36% | ~35% | 35% | 0.63%
